# Test results as given in ChEMBL document CHEMBL6109078, “Pyrylium derivatives as outer membrane permeabilizers against MDR gram-negative bacteria via multi-target mode of action” (Eur J Med Chem, 2025).
# Bridge positions count the residues as written; N and C are the ends. Square brackets hold non-standard residues; d marks the D form. Peptide text beside a SMILES is read from it. * marks the point of attachment. X1 = CC[C@H](C)CCCCC(=O)*; Dab = NCC[C@H](N)C(=O)O
# What was measured:
# Escherichia coli [1] = test: Antibacterial activity against Escherichia coli ATCC 25922 assessed as inhibition of bacterial growth by CLSI protocol based method; type: functional
# Klebsiella pneumoniae [2] = test: Antibacterial activity against Klebsiella pneumoniae ATCC 700603 assessed as inhibition of bacterial growth by CLSI protocol based method; type: functional
# Acinetobacter baumannii [3] = test: Antibacterial activity against multi-drug resistant Acinetobacter baumannii clinical isolate 51 assessed as inhibition of bacterial growth by CLSI protocol based method; type: functional
# Escherichia coli [4] = test: Antibacterial activity against ESBL positive Escherichia coli ATCC 35218 assessed as inhibition of bacterial growth by CLSI protocol based method; type: functional
# Acinetobacter baumannii [5] = test: Antibacterial activity against multi-drug resistant Acinetobacter baumannii clinical isolate 43 assessed as inhibition of bacterial growth by CLSI protocol based method; type: functional
# Escherichia coli [6] = test: Antibacterial activity against Escherichia coli CG-4 expressing MCR-1 and NDM-1 assessed as inhibition of bacterial growth by CLSI protocol based method; type: functional
# Acinetobacter baumannii [7] = test: Antibacterial activity against multi-drug resistant Acinetobacter baumannii clinical isolate 2 assessed as inhibition of bacterial growth by CLSI protocol based method; type: functional
# Escherichia coli [8] = test: Antibacterial activity against Escherichia coli ATCC 25922 infected in Galleria mellonella larvae assessed as survival rate of larvae at 1 microg/ml relative to control; type: functional
# Pseudomonas aeruginosa [9] = test: Antibacterial activity Pseudomonas aeruginosa ATCC 27853 assessed as inhibition of bacterial growth by CLSI protocol based method; type: functional
# Escherichia coli [10] = test: Antibacterial activity against multi-drug resistant Escherichia coli clinical isolate 1 assessed as inhibition of bacterial growth by CLSI protocol based method; type: functional
# Acinetobacter baumannii [11] = test: Antibacterial activity against multi-drug resistant Acinetobacter baumannii clinical isolate 10 assessed as inhibition of bacterial growth by CLSI protocol based method; type: functional
# Acinetobacter baumannii [12] = test: Antibacterial activity against Acinetobacter baumannii ATCC 19606 infected in Galleria mellonella larvae assessed as survival rate of larvae at 1 microg/ml measured after 96 hrs relative to control; type: functional
# Acinetobacter baumannii [13] = test: Antibacterial activity against multi-drug resistant Acinetobacter baumannii clinical isolate 14 assessed as inhibition of bacterial growth by CLSI protocol based method; type: functional
# Acinetobacter baumannii [14] = test: Antibacterial activity against multi-drug resistant Acinetobacter baumannii clinical isolate 1 assessed as inhibition of bacterial growth by CLSI protocol based method; type: functional
# Acinetobacter baumannii [15] = test: Antibacterial activity against Acinetobacter baumannii ATCC 19606 assessed as inhibition of bacterial growth by CLSI protocol based method; type: functional
# Acinetobacter baumannii [16] = test: Antibacterial activity against multi-drug resistant Acinetobacter baumannii clinical isolate 4 assessed as inhibition of bacterial growth by CLSI protocol based method; type: functional
# Acinetobacter baumannii [17] = test: Antibacterial activity against multi-drug resistant Acinetobacter baumannii clinical isolate 5 assessed as inhibition of bacterial growth by CLSI protocol based method; type: functional
# Acinetobacter baumannii [18] = test: Synergistic antibacterial activity against Acinetobacter baumannii ATCC 19606 assessed as inhibition of bacterial growth in presence of polymyxin B by checkerboard assay; type: functional
# Acinetobacter baumannii [19] = test: Synergistic antibacterial activity against multi-drug resistant Acinetobacter baumannii clinical isolate 43 assessed as inhibition of bacterial growth by measuring polymyxin B MIC by checkerboard assay; type: functional
# Acinetobacter baumannii [20] = test: Synergistic antibacterial activity against Acinetobacter baumannii ATCC 19606 assessed as inhibition of bacterial growth by measuring polymyxin B MIC by checkerboard assay; type: functional
# [21] = Binding affinity to His-tagged LptA (unknown origin) extracted from Escherichia coli BL21 (DE3) cells assessed as dissociation constant by BLI analysis; design: species or system Bacteria
# Acinetobacter baumannii [22] = test: Synergistic antibacterial activity against Acinetobacter baumannii ATCC 19606 assessed as fractional inhibitory concentration index in presence of polymyxin B by checkerboard assay; type: functional
# Escherichia coli [23] = test: Synergistic antibacterial activity against Escherichia coli ATCC 25922 assessed as inhibition of bacterial growth by measuring polymyxin B MIC by checkerboard assay; type: functional
# Escherichia coli [24] = test: Synergistic antibacterial activity against multi-drug resistant Escherichia coli clinical isolate 1 assessed as fractional inhibitory concentration index in presence of polymyxin B by checkerboard assay; type: functional
# Escherichia coli [25] = test: Synergistic antibacterial activity against Escherichia coli CG-4 expressing MCR-1 and NDM-1 assessed as fractional inhibitory concentration index in presence of polymyxin B by checkerboard assay; type: functional
# Acinetobacter baumannii [26] = test: Synergistic antibacterial activity against multi-drug resistant Acinetobacter baumannii clinical isolate 14 assessed as inhibition of bacterial growth in presence of polymyxin B by checkerboard assay; type: functional
# [27] = Binding affinity to His-tagged LptC (unknown origin) extracted from Escherichia coli BL21 (DE3) cells assessed as dissociation constant by BLI analysis; design: species or system Bacteria
# Acinetobacter baumannii [28] = test: Synergistic antibacterial activity against multi-drug resistant Acinetobacter baumannii clinical isolate 43 assessed as fractional inhibitory concentration index in presence of polymyxin B by checkerboard assay; type: functional
# Escherichia coli [29] = test: Synergistic antibacterial activity against Escherichia coli ATCC 35218 assessed as inhibition of bacterial growth in presence of polymyxin B by checkerboard assay; type: functional
# Pseudomonas aeruginosa [30] = test: Antibacterial activity Pseudomonas aeruginosa PAO1 assessed as inhibition of bacterial growth by CLSI protocol based method; type: functional
# Escherichia coli [31] = test: Synergistic antibacterial activity against Escherichia coli CG-4 expressing MCR-1 and NDM-1 assessed as inhibition of bacterial growth in presence of polymyxin B by checkerboard assay; type: functional
# Escherichia coli [32] = test: Synergistic antibacterial activity against Escherichia coli ATCC 35218 assessed as fractional inhibitory concentration index in presence of polymyxin B by checkerboard assay; type: functional
# Escherichia coli [33] = test: Synergistic antibacterial activity against Escherichia coli ATCC 35218 assessed as inhibition of bacterial growth by measuring polymyxin B MIC by checkerboard assay; type: functional; details: Escherichia coli, ATCC 35218; read-out: MIC
# Acinetobacter baumannii [34] = test: Synergistic antibacterial activity against multi-drug resistant Acinetobacter baumannii clinical isolate 5 assessed as inhibition of bacterial growth by measuring polymyxin B MIC by checkerboard assay; type: functional
# Escherichia coli [35] = test: Synergistic antibacterial activity against multi-drug resistant Escherichia coli clinical isolate 1 assessed as inhibition of bacterial growth by measuring polymyxin B MIC by checkerboard assay; type: functional
# Acinetobacter baumannii [36] = test: Synergistic antibacterial activity against multi-drug resistant Acinetobacter baumannii clinical isolate 43 assessed as inhibition of bacterial growth in presence of polymyxin B by checkerboard assay; type: functional
# Acinetobacter baumannii [37] = test: Synergistic antibacterial activity against multi-drug resistant Acinetobacter baumannii clinical isolate 1 assessed as inhibition of bacterial growth in presence of polymyxin B by checkerboard assay; type: functional
# Acinetobacter baumannii [38] = test: Synergistic antibacterial activity against multi-drug resistant Acinetobacter baumannii clinical isolate 5 assessed as inhibition of bacterial growth in presence of polymyxin B by checkerboard assay; type: functional
# Escherichia coli [39] = test: Synergistic antibacterial activity against Escherichia coli ATCC 25922 assessed as inhibition of bacterial growth in presence of polymyxin B by checkerboard assay; type: functional
# Escherichia coli [40] = test: Synergistic antibacterial activity against Escherichia coli ATCC 25922 assessed as fractional inhibitory concentration index in presence of polymyxin B by checkerboard assay; type: functional
# Acinetobacter baumannii [41] = test: Synergistic antibacterial activity against multi-drug resistant Acinetobacter baumannii clinical isolate 14 assessed as inhibition of bacterial growth by measuring polymyxin B MIC by checkerboard assay; type: functional
# Acinetobacter baumannii [42] = test: Synergistic antibacterial activity against multi-drug resistant Acinetobacter baumannii clinical isolate 1 assessed as inhibition of bacterial growth by measuring polymyxin B MIC by checkerboard assay; type: functional
# Escherichia coli [43] = test: Synergistic antibacterial activity against multi-drug resistant Escherichia coli clinical isolate 1 assessed as inhibition of bacterial growth in presence of polymyxin B by checkerboard assay; type: functional
# Escherichia coli [44] = test: Synergistic antibacterial activity against Escherichia coli CG-4 expressing MCR-1 and NDM-1 assessed as inhibition of bacterial growth by measuring polymyxin B MIC by checkerboard assay; type: functional
# Acinetobacter baumannii [45] = test: Synergistic antibacterial activity against multi-drug resistant Acinetobacter baumannii clinical isolate 1 assessed as fractional inhibitory concentration index in presence of polymyxin B by checkerboard assay; type: functional
# Klebsiella pneumoniae [46] = test: Antibacterial activity against Klebsiella pneumoniae BAA ATCC 1706 assessed as inhibition of bacterial growth by CLSI protocol based method; type: functional
structure (smiles),measurement,setting,value
CC(C)CCCCC(=O)N[C@@H](CCN)C(=O)N[C@H](C(=O)N[C@@H](CCN)C(=O)N[C@H]1CCNC(=O)[C@H]([C@@H](C)O)NC(=O)[C@H](CCN)NC(=O)[C@H](CCN)NC(=O)[C@H](CC(C)C)NC(=O)[C@@H](Cc2ccccc2)NC(=O)[C@H](CCN)NC1=O)[C@@H](C)O.CC[C@H](C)CCCCC(=O)N[C@@H](CCN)C(=O)N[C@H](C(=O)N[C@@H](CCN)C(=O)N[C@H]1CCNC(=O)[C@H]([C@@H](C)O)NC(=O)[C@H](CCN)NC(=O)[C@H](CCN)NC(=O)[C@H](CC(C)C)NC(=O)[C@@H](Cc2ccccc2)NC(=O)[C@H](CCN)NC1=O)[C@@H](C)O (X1-[Dab]T[Dab][Dab][Dab][dF]L[Dab][Dab]T; lactam 4-C),MIC,Escherichia coli [1],0.05 µg/mL
same,MIC,Klebsiella pneumoniae [2],0.2 µg/mL
same,MIC,Acinetobacter baumannii [3],0.78 µg/mL
same,MIC,Escherichia coli [4],0.1 µg/mL
same,MIC,Acinetobacter baumannii [5],> 100 µg/mL
same,MIC,Escherichia coli [6],6.25 µg/mL
same,MIC,Acinetobacter baumannii [7],0.39 µg/mL
same,survival at 1 µg/mL,Escherichia coli [8],40%
same,MIC,Pseudomonas aeruginosa [9],6.25 µg/mL
same,MIC,Escherichia coli [10],12.5 µg/mL
same,MIC,Acinetobacter baumannii [11],0.05 µg/mL
same,survival at 1 µg/mL,Acinetobacter baumannii [12],20%
same,MIC,Acinetobacter baumannii [13],0.39 µg/mL
same,MIC,Acinetobacter baumannii [14],> 100 µg/mL
same,MIC,Acinetobacter baumannii [15],0.05 µg/mL
same,MIC,Acinetobacter baumannii [16],0.39 µg/mL
same,MIC,Acinetobacter baumannii [17],0.05 µg/mL
CN(C)c1ccc(/C=C/c2cc(C(C)(C)C)[o+]c(C(C)(C)C)c2)cc1.O=S(=O)([O-])C(F)(F)F,MIC,Escherichia coli [1],12.5 µg/mL
same,MIC,Acinetobacter baumannii [18],1.56 µg/mL
same,MIC,Klebsiella pneumoniae [2],> 100 µg/mL
same,MIC,Acinetobacter baumannii [3],50 µg/mL
same,MIC,Escherichia coli [4],12.5 µg/mL
same,MIC,Acinetobacter baumannii [19],1 10^-4 ug/ml
same,MIC,Acinetobacter baumannii [20],0.006 µg/mL
same,Kd,[21],160 µM
same,MIC,Acinetobacter baumannii [5],50 µg/mL
same,fractional inhibitory concentration index (FICI),Acinetobacter baumannii [22],0.188
same,MIC,Escherichia coli [23],7.8 10^-4 ug/ml
same,MIC,Escherichia coli [6],25 µg/mL
same,MIC,Acinetobacter baumannii [7],25 µg/mL
same,fractional inhibitory concentration index (FICI),Escherichia coli [24],0.047
same,fractional inhibitory concentration index (FICI),Escherichia coli [25],0.188
same,MIC,Acinetobacter baumannii [26],6.25 µg/mL
same,Kd,[27],17 µM
same,MIC,Pseudomonas aeruginosa [9],> 100 µg/mL
same,fractional inhibitory concentration index (FICI),Acinetobacter baumannii [28],<0.25
same,MIC,Escherichia coli [10],100 µg/mL
same,MIC,Escherichia coli [29],1.56 µg/mL
same,MIC,Pseudomonas aeruginosa [30],> 100 µg/mL
same,MIC,Escherichia coli [31],3.13 µg/mL
same,MIC,Acinetobacter baumannii [11],25 µg/mL
same,fractional inhibitory concentration index (FICI),Escherichia coli [32],0.375
same,MIC,Escherichia coli [33],0.25 µg/mL
same,MIC,Acinetobacter baumannii [34],0.006 µg/mL
same,MIC,Escherichia coli [35],0.2 µg/mL
same,MIC,Acinetobacter baumannii [36],12.5 µg/mL
same,MIC,Acinetobacter baumannii [37],3.13 µg/mL
same,MIC,Acinetobacter baumannii [38],12.5 µg/mL
same,MIC,Escherichia coli [39],6.25 µg/mL
same,MIC,Acinetobacter baumannii [13],25 µg/mL
same,fractional inhibitory concentration index (FICI),Escherichia coli [40],0.266
same,MIC,Acinetobacter baumannii [41],0.006 µg/mL
same,MIC,Acinetobacter baumannii [42],0.05 µg/mL
same,MIC,Acinetobacter baumannii [14],100 µg/mL
same,MIC,Escherichia coli [43],3.13 µg/mL
same,MIC,Acinetobacter baumannii [15],12.5 µg/mL
same,MIC,Acinetobacter baumannii [16],25 µg/mL
same,MIC,Acinetobacter baumannii [17],50 µg/mL
same,MIC,Escherichia coli [44],0.39 µg/mL
same,fractional inhibitory concentration index (FICI),Acinetobacter baumannii [45],<0.032
same,MIC,Klebsiella pneumoniae [46],> 100 µg/mL
